Test results from US20240228504A1, “SUBSTITUTED TRICYCLIC AMIDES, ANALOGUES THEREOF, AND METHODS USING SAME” (Arbutus Biopharma Corporation, priority 2020, published 2024).

tested on: HBV rcDNA in HepDE19 cells; experiment: HepDE19 assay with bDNA quantitation of HBV rcDNA; assay type: cell-based, hepatitis B virus; settings: HepDE19 assay, inhibition of rcDNA formation, bDNA quantitation; read-out: DE-19bDNA EC50

| SMILES | EC50 |
| --- | --- |
| CN(C(=O)c1cc2c(F)cccc2[nH]1)C1COCc2[nH]c(=O)c3cc(F)c(F)cc3c21 (single isomer, unassigned) [Compound 23, N-(8,9-Difluoro-6-oxo-1,4,5,6-tetrahydro-2H-pyrano[3,4-c]isoquinolin-1-yl)-4-fluoro-N-methyl-1H-indole-2-carboxamide] | 4500 nM |
| CN(C(=O)c1cc2sccc2[nH]1)C1CNCc2[nH]c(=O)c3cc(F)c(F)cc3c21 (single isomer, unassigned) [Compound 420, N-(8,9-Difluoro-6-oxo-1,2,3,4,5,6-hexahydrobenzo[c][1,7]naphthyridin-1-yl)-N-methyl-4H-thieno[3,2-b]pyrrole-5-carboxamide] | 660 nM |
| CN(C(=O)C1Cc2c(F)cc(F)cc2N1)C1COCc2[nH]c(=O)c3cc(F)c(F)cc3c21 (centres unmarked) [Compound 13, N-(8,9-Difluoro-6-oxo-1,4,5,6-tetrahydro-2H-pyrano[3,4-c]isoquinolin-1-yl)-4,6-difluoro-N-methylindoline-2-carboxamide] | 12000 nM |
| CN(C(=O)c1cc2c(F)cccn2c1)C1CSCc2[nH]c(=O)c3cc(F)c(F)cc3c21 (single isomer, unassigned) [Compound 104, N-(8,9-Difluoro-6-oxo-1,4,5,6-tetrahydro-2H-thiopyrano[3,4-c]isoquinolin-1-yl)-8-fluoro-N-methylindolizine-2-carboxamide] | 10 nM |
| CN(C(=O)c1cc2ccc(F)cc2[nH]1)C1CNCc2[nH]c(=O)c3cc(F)c(F)cc3c21 (single isomer, unassigned) [Compound 107, N-(8,9-Difluoro-6-oxo-1,2,3,4,5,6-hexahydrobenzo[c][1,7]naphthyridin-1-yl)-6-fluoro-N-methyl-1H-indole-2-carboxamide] | 20 nM |
| CN(C(=O)c1cc2c(F)cccc2[nH]1)C1COCc2[nH]c(=O)c3cc(F)c(F)cc3c21 (single isomer, unassigned) [Compound 24, N-(8,9-Difluoro-6-oxo-1,4,5,6-tetrahydro-2H-pyrano[3,4-c]isoquinolin-1-yl)-4-fluoro-N-methyl-1H-indole-2-carboxamide] | 4 nM |
| CN(C(=O)c1cc2cc(F)ccn2c1)C1CNCc2[nH]c(=O)c3cc(F)c(F)cc3c21 (single isomer, unassigned) [Compound 163, N-(8,9-Difluoro-6-oxo-1,2,3,4,5,6-hexahydrobenzo[c][1,7]naphthyridin-1-yl)-7-fluoro-N-methylindolizine-2-carboxamide] | 30 nM |
| CN(C(=O)c1cc2c(F)cccn2c1)C1COCc2[nH]c(=O)c3cc(F)c(F)cc3c21 (single isomer, unassigned) [Compound 9, N-(8,9-Difluoro-6-oxo-1,4,5,6-tetrahydro-2H-pyrano[3,4-c]isoquinolin-1-yl)-8-fluoro-N-methylindolizine-2-carboxamide] | 3300 nM |
| CN(C(=O)c1cc2ccccc2[nH]1)C1CNCc2[nH]c(=O)c3cc(F)c(F)cc3c21 (single isomer, unassigned) [Compound 54, N-(8,9-Difluoro-6-oxo-1,2,3,4,5,6-hexahydrobenzo[c][1,7]naphthyridin-1-yl)-N-methyl-1H-indole-2-carboxamide] | 850 nM |
| CN(C(=O)c1cc2ccccn2c1)C1CNCc2[nH]c(=O)c3cc(F)c(F)cc3c21 (single isomer, unassigned) [Compound 507, N-(8,9-Difluoro-6-oxo-1,2,3,4,5,6-hexahydrobenzo[c][1,7]naphthyridin-1-yl)-N-methylindolizine-2-carboxamide] | 60 nM |
| CN(C(=O)c1cc2c(C(F)F)cc(F)cc2[nH]1)C1COCc2[nH]c(=O)c3cc(F)ccc3c21 (single isomer, unassigned) [Compound 238, 4-(Difluoromethyl)-6-fluoro-N-(8-fluoro-6-oxo-1,4,5,6-tetrahydro-2H-pyrano[3,4-c]isoquinolin-1-yl)-N-methyl-1H-indole-2-carboxamide] | 1400 nM |
| CN(C(=O)c1cc2c(C(F)F)c(F)ccc2[nH]1)C1COCc2[nH]c(=O)c3cc(F)ccc3c21 (single isomer, unassigned) [Compound 256, 4-(Difluoromethyl)-5-fluoro-N-(8-fluoro-6-oxo-1,4,5,6-tetrahydro-2H-pyrano[3,4-c]isoquinolin-1-yl)-N-methyl-1H-indole-2-carboxamide] | 10 nM |
| CN(C(=O)c1cc2c(C(F)F)cc(F)cc2[nH]1)C1COCc2[nH]c(=O)c3cc(F)ccc3c21 (single isomer, unassigned) [Compound 239, 4-(Difluoromethyl)-6-fluoro-N-(8-fluoro-6-oxo-1,4,5,6-tetrahydro-2H-pyrano[3,4-c]isoquinolin-1-yl)-N-methyl-1H-indole-2-carboxamide] | 10 nM |
| CN(C(=O)c1cc2cc(F)ccc2[nH]1)[C@@H]1CCC(O)c2[nH]c(=O)c3cc(F)c(F)cc3c21 (single isomer, unassigned) [Compound 501] | 10 nM |
| CN(C(=O)c1cc2ccccc2[nH]1)C1CN(CCO)Cc2[nH]c(=O)c3cc(F)c(F)cc3c21 (single isomer, unassigned) [Compound 90, N-(8,9-Difluoro-3-(2-hydroxyethyl)-6-oxo-1,2,3,4,5,6-hexahydrobenzo[c][1,7]naphthyridin-1-yl)-N-methyl-1H-indole-2-carboxamide] | 500 nM |

same assay, conditions: Hepatitis B virus, HepDE19, HepDE19 assay, inhibition of rcDNA formation, bDNA quantitation; read-out: DE-19bDNA EC50

| SMILES | EC50 |
| --- | --- |
| CN(C(=O)c1cc(F)c(C(F)(F)F)c(F)c1)[C@@H]1COCc2[nH]c(=O)c3cc(F)c(F)cc3c21 [Compound 139, (S)-N-(8,9-Difluoro-6-oxo-1,4,5,6-tetrahydro-2H-pyrano[3,4-c]isoquinolin-1-yl)-3,5-difluoro-N-methyl-4-(trifluoromethyl)benzamide] | 10 nM |
| CN([C@@H]1COCc2[nH]c(=O)c3cc(F)c(F)cc3c21)S(=O)(=O)c1cccc(Cl)c1 [Compound 144, (S)-3-Chloro-N-(8,9-difluoro-6-oxo-1,4,5,6-tetrahydro-2H-pyrano[3,4-c]isoquinolin-1-yl)-N-methylbenzenesulfonamide] | 12000 nM |
| CN(C(=O)c1cc2ccc(Br)cn2c1)[C@@H]1COCc2[nH]c(=O)c3cc(F)c(F)cc3c21 [Compound 348, (S)-6-Bromo-N-(8,9-difluoro-6-oxo-1,4,5,6-tetrahydro-2H-pyrano[3,4-c]isoquinolin-1-yl)-N-methylindolizine-2-carboxamide] | 40 nM |
| CN(C(=O)c1cnc(C(F)(F)F)[nH]1)[C@@H]1COCc2[nH]c(=O)c3cc(F)c(F)cc3c21 [Compound 225, (S)-N-(8,9-Difluoro-6-oxo-1,4,5,6-tetrahydro-2H-pyrano[3,4-c]isoquinolin-1-yl)-N-methyl-2-(trifluoromethyl)-1H-imidazole-5-carboxamide] | 13000 nM |
| CN(C(=O)c1cc2cc(F)c(F)cc2[nH]1)[C@@H]1CCCc2[nH]c(=O)c3cc(F)ccc3c21 [Compound 490, (R)-5,6-difluoro-N-(8-fluoro-6-oxo-1,2,3,4,5,6-hexahydrophenanthridin-1-yl)-N-methyl-1H-indole-2-carboxamide] | 20 nM |
| COc1ccc2cc(C(=O)N(C)[C@@H]3COCc4[nH]c(=O)c5cc(F)c(F)cc5c43)[nH]c2c1 [Compound 364, (S)-N-(8,9-Difluoro-6-oxo-1,4,5,6-tetrahydro-2H-pyrano[3,4-c]isoquinolin-1-yl)-6-methoxy-N-methyl-1H-indole-2-carboxamide] | 30 nM |
| CN(C(=O)c1cc2cc(F)ccc2[nH]1)[C@@H]1CCCc2[nH]c(=O)c3cc(F)ccc3c21 [Compound 489, (R)-5-Fluoro-N-(8-fluoro-6-oxo-1,2,3,4,5,6-hexahydrophenanthridin-1-yl)-N-methyl-11H-indole-2-carboxamide] | 10 nM |
| CN(C(=O)c1ccc2ncccc2c1)[C@@H]1COCc2[nH]c(=O)c3cc(F)c(F)cc3c21 [Compound 67, (S)-N-(8,9-Difluoro-6-oxo-1,4,5,6-tetrahydro-2H-pyrano[3,4-c]isoquinolin-1-yl)-N-methylquinoline-6-carboxamide] | 1600 nM |
| CN(C(=O)c1cc(F)c(Cl)c(F)c1)C1CNCc2[nH]c(=O)c3cc(F)ccc3c21 (single isomer, unassigned) [Compound 176, 4-Chloro-3,5-difluoro-N-(8-fluoro-6-oxo-1,2,3,4,5,6-hexahydrobenzo[c][1,7]naphthyridin-1-yl)-N-methylbenzamide] | 19600 nM |
| CN(C(=O)c1ccc2c(c1)c(C(F)F)nn2C)[C@@H]1COCc2[nH]c(=O)c3cc(F)c(F)cc3c21 [Compound 436, (S)-N-(8,9-Difluoro-6-oxo-1,4,5,6-tetrahydro-2H-pyrano[3,4-c]isoquinolin-1-yl)-3-(difluoromethyl)-N,1-dimethyl-1H-indazole-5-carboxamide] | 100 nM |
| CN(C(=O)c1cnn(-c2ccc(F)cc2)c1)[C@@H]1COCc2[nH]c(=O)c3cc(F)c(F)cc3c21 [Compound 234, (S)-N-(8,9-Difluoro-6-oxo-1,4,5,6-tetrahydro-2H-pyrano[3,4-c]isoquinolin-1-yl)-1-(4-fluorophenyl)-N-methyl-1H-pyrazole-4-carboxamide] | 10500 nM |
| CN(C(=O)c1cc(F)c(C(F)F)c(F)c1)[C@@H]1COCc2[nH]c(=O)c3cc(F)c(F)cc3c21 [Compound 180, (S)-N-(8,9-Difluoro-6-oxo-1,4,5,6-tetrahydro-2H-pyrano[3,4-c]isoquinolin-1-yl)-4-(difluoromethyl)-3,5-difluoro-N-methylbenzamide] | 160 nM |
| CN(C(=O)c1ccnc(F)c1)[C@@H]1COCc2[nH]c(=O)c3cc(F)c(F)cc3c21 [Compound 85, (S)-N-(8,9-Difluoro-6-oxo-1,4,5,6-tetrahydro-2H-pyrano[3,4-c]isoquinolin-1-yl)-2-fluoro-N-methylisonicotinamide] | 630 nM |
| CN(C(=O)c1ccn2ccccc12)[C@@H]1COCc2[nH]c(=O)c3cc(F)c(F)cc3c21 [Compound 261, (S)-N-(8,9-Difluoro-6-oxo-1,4,5,6-tetrahydro-2H-pyrano[3,4-c]isoquinolin-1-yl)-N-methylindolizine-1-carboxamide] | 6400 nM |
